The results in this text go back to US20260060972A1, “Quantitative Method of Determining a Mental Status Based on DRD1 and/or DRD5, and its Application Thereof” (priority 2022, published 2026).

The test system of test [1] is 2.8-kb human DRD1 gene promoter. Kind of test: Dual-luciferase reporter assay of human DRD1 gene promoter in SH-SY5Y cells. The following applies: for effect on SCH23390/SKF81297-altered DRD1 promoter activity: co-treatment with SCH23390 or SKF81297. On the technique in general: Reporter assays use an easily measured gene product as a stand-in for the process of interest.

The next test deals with human DRD1 gene. Kind of test: DRD1 mRNA expression by quantitative real time-PCR in SH-SY5Y cells. The following applies: for DRD1 mRNA expression, time response: 10 μM, 12, 18, 24, 30 or 32 hrs; for effect of Haloperidol co-treatment on SCH23390-decreased DRD1 mRNA expression: Haloperidol 10 μM co-treatment 12 hrs.
A further test has as its system DRD1 membrane protein. The following applies: treatment for 36 hrs.
[2] abbreviates: 10 μM, treatment for 18 hrs (FIG. 2A, 3A).
Setting [3] is: 10 μM, treatment for 24 hrs (FIG. 2A, 3A).

“Also recorded” adds a separate entry of the source.

Method for DRD1 membrane protein: The cultured SH-SY5Y cells were pretreated with complete EMEM medium containing 10 μM SCH23390 for 6 hrs or 12 hrs. […] After treatment, the cells were harvested and processed for mRNA and protein analysis of human DRD1 gene.
The cultured SH-SY5Y cells were pretreated with complete EMEM medium containing 10 μM SKF81297 for 6 hrs or 12 hrs. […] After treatment, the cells were harvested and processed for mRNA and protein analysis of human DRD1 gene
The membrane proteins were extracted using the mem-PER Plus membrane protein extraction kit (ThermoFisher Scinetific, Waltham, MA). The protein concentrations were semi-quantified spectrophotometrically at 280 nm. […] Then, proteins were electro-transferred to a polyvinyl difluoride (PVDF) membrane. […] After the block, the membrane was incubated with primary antibody (human DRD1 antibody, 1:1000) overnight at 4° C. […] The membrane was briefly washed 3 times using fresh TBS, then incubated with Pierce High Sensitivity Streptavidin HRP-linked secondary antibody (1:5000) in TBS supplemented with 0.5% BSA for 30 minutes at room temperature. The membrane was rinsed 3 times using fresh TBS. The immunoreactive protein bands in the membrane were visualized via UVP Biospectrum Imaging system (Upland, CA) using with Immobilon Chemiluminescence reagents (Millipore, Billerica, MA). Protein bands analysis was performed using the ImageJ (NIH, Bethesda, MD).

Take `CN(C)C(=O)N[C@H]1CC[C@H](CCN2CCN(c3cccc(Cl)c3Cl)CC2)CC1` [Cariprazine]: the “effect on SCH23390/SKF81297-altered DRD1 promoter activity” value in test [1] is reported as “trans-stabilize SCH23390/SKF81297-altered DRD1 promoter activity”.
With `O=C(CCCN1CCC(O)(c2ccc(Cl)cc2)CC1)c1ccc(F)cc1` [Haloperidol], the “human DRD1 gene promoter activity, treatment alone” value in test [1] (2.8-kb promoter luciferase reporter, SCH23390 and SKF81297 for 36 hrs (FIG. 4A, 4B)) was “did not change human DRD1 gene promoter activity”. Also, the “effect of haloperidol cotreatment on SCH23390-repressed DRD1 promoter activity” value in test [1] (SCH23390 36 hrs, haloperidol cotreatment 24 or 36 hrs (FIG. 4A)) was “reversed”. Also, the “effect of haloperidol co-treatment on SKF81297-activated DRD1 promoter activity” value in test [1] (SKF81297 36 hrs, haloperidol co-treatment 24 and 36 hrs (FIG. 4B)) was “markedly attenuated”. For the same compound, the “effect on SCH23390/SKF81297-altered DRD1 promoter activity” value in test [1] was “reversed SCH23390/SKF21897-altered DRD1 promoter activity; also recorded: reversed either SCH23390 or SKF81297-altered human DRD1 promoter activity”. For the same compound, in the test on human DRD1 gene (SH-SY5Y cells (FIG. 1A)), the “DRD1 mRNA expression, time response” value is listed as “did not alter DRD1 mRNA expression at any time points”. The “DRD1 mRNA and protein expression, treatment alone (summary)” value with human DRD1 gene (10 μM, SH-SY5Y cells) is on record as “does not alter DRD1 expression”. Further, the “DRD1 mRNA expression, treatment alone” value with human DRD1 gene (setting [2]) and in the test on human DRD1 gene (setting [3]) was “did not alter DRD1 mRNA expression” throughout. Moreover, in the test with human DRD1 gene (Haloperidol co-treatment for 12 hrs (FIG. 3A)), the “effect of Haloperidol co-treatment on SKF81297-increased DRD1 mRNA expression” value is reported as “completely diminished SKF81297-increased DRD1 mRNA expression”. Besides, the “effect of Haloperidol co-treatment on SCH23390-decreased DRD1 mRNA expression” value was “completely reversed” in the test with human DRD1 gene (SCH23390 10 μM for 18 hrs) and “not reversed” with human DRD1 gene (SCH23390 10 μM for 24 hrs). In the test with human DRD1 gene (SH-SY5Y cells (FIGS. 2A-2E)), the “effect of Haloperidol co-treatment on SCH23390-decreased DRD1 mRNA and protein expression (summary)” value is “reverses SCH23390-decreased DRD1 mRNA and protein expression; also recorded: reversed”. For the same compound, the “effect of Haloperidol co-treatment on SKF81297-increased DRD1 mRNA and protein expression (summary)” value in the test on human DRD1 gene (SH-SY5Y cells (FIGS. 3A-3E)) is “attenuated SKF81297-increased DRD1 mRNA and protein expression”.
Turning to `Cc1nc2n(c(=O)c1CCN1CCC(c3noc4cc(F)ccc34)CC1)CCCC2` [Risperidone], the “relative Luciferase activity of DRD1 under treatment of SCH and antipsychotic” value in test [1] (co-treatment of SCH (FIG. 5A, 6A)) was “partial DRD1 antagonist effect”. The “relative Luciferase activity of DRD1 under treatment of SKF and antipsychotic” value in test [1] (co-treatment of SKF (FIG. 5B, 6B)) is reported as “partial DRD1 antagonist effect”. For the same compound, the “effect on SCH23390/SKF81297-altered DRD1 promoter activity” value in test [1] is “trans-stabilize SCH23390/SKF81297-altered DRD1 promoter activity; also recorded: reverse and normalize either SCH23390 or SKF81297-altered human DRD1 promoter activity”.
For the compound `CN1CCc2cc(Cl)c(O)cc2[C@@H](c2ccccc2)C1` [SCH23390, SCH-23390], in the test with DRD1 membrane protein, the “decrease of DRD1 membrane protein” value is reported as “more than 70%”.
Regarding `Oc1cc2c(c(Cl)c1O)CCNCC2c1ccccc1` (stereo not drawn) [SKF81297, SKF-81297], in the test on human DRD1 gene (SH-SY5Y cells (FIG. 1A)), the “DRD1 mRNA expression, time response” value is reported as “time-dependently increased DRD1 mRNA expression”. The “increase of DRD1 mRNA expression” value in the test on human DRD1 gene (10 μM, 24 hrs later, SH-SY5Y cells (FIG. 1A)) is given as 6 fold. Further, the “DRD1 mRNA expression 30 hrs later and thereafter” value in the test on human DRD1 gene (10 μM, 30 hrs later and thereafter, SH-SY5Y cells) is recorded as “decreased to basal level”. In addition, in the test with human DRD1 gene (10 μM, SH-SY5Y cells), the “DRD1 mRNA and protein expression, treatment alone (summary)” value was “increases DRD1 mRNA and protein expression in a time-dependent manner”. The “DRD1 mRNA expression, treatment alone” value in the test on human DRD1 gene (setting [2]) and in the test on human DRD1 gene (setting [3]) was “increased human DRD1 mRNA expression” throughout.
